Laboratory results taken from patent US4447453A, “Anti-peptic ulcer agent” (Chugai Seiyaku Kabushiki Kaisha, priority 1980, dated 1984).

How the values were obtained:
[1] = test system: rats with stress-induced ulcer; assay: Restraint and water immersion stress ulcer test in rats (Takagi et al.); format: in vivo, rat (Sprague-Dawley, male); conditions: for inhibition in vivo at 200 mg/kg / inhibition in vivo at 50 mg/kg / inhibition in vivo at 100 mg/kg: Rattus norvegicus
Procedure: Groups of 7-week-old Sprague-Dawley male rats each consisting of 10 members were starved for 24 hours and administered orally the compounds of the present invention. Ten minutes later, they were confined in a restrainer cage according to the method of Takagi et al. (Japanese Journal of Pharmacology, 18, 9-18, 1968), and the cage was placed vertically in a water tank at 23°-24° C. until the rats were immersed in the water to the depth of the processus xiphoideus. Sixteen hours later, the rats were killed with excess ether and had their stomach removed. Each stomach was incised along the greater curvature after the surface of the gastric mucosa and serous membrane was lightly fixed with 1% formalin. The diameter (mm) of the ulcers developed in each rat was summed and the sum was used as the ulcer index for each rat.
The activity of the compounds of the present invention to cure peptic ulcer was measured as in Example 2.

[2] = test system: ulcers developed in Shay rats; assay: Pylorus ligation (Shay) ulcer test in rats; format: in vivo, rat (Sprague-Dawley, male)
Procedure: Groups of 8-week-old Spraque-Dawley male rats each consisting of 10 members were starved for 48 hours, anaethesized with ether and had their pylorus ligated in accordance with the method of Shay et al. (Gasteroenterology, 5, 43-61, 1945). Immediately thereafter, they were administered the compounds of the present invention intra-duodenally or intraperitoneally. Eighteen hours later, they were killed with excess ether and the gastric mucus membrane was removed and observed under a stereoscopic microscope (×10). The diameter (mm) of the ulcers developed in each rat was summed and the sum was used as the ulcer index of each rat.
The activity of the compounds of the present invention to cure peptic ulcer was measured as in Example 1. The test compound was administered in the duodenum.

[3] = Acute oral toxicity (LD50) in ddY mice; conditions: mouse, in vivo, male ddY mice, suspension in 2% aqueous gum arabic
Procedure: The compounds listed above have very low toxicity, and the first six compounds have following the LD50 values when they are administered orally to ddY strain male mice (5 weeks old and weighing from 26-30 g) in the form of a suspension in a 2% aqueous gum arabic: […]

[4] = Table 4, as in Example 2 (oral), 200 mg/kg
[5] = Table 3, administered in the duodenum, 100 mg/kg
[6] = Table 1, intra-duodenal, 50 mg/kg, 18 h
[7] = Table 1, intra-duodenal, 100 mg/kg, 18 h
[8] = Table 1, intra-duodenal, 200 mg/kg, 18 h
[9] = Table 1, intra-peritoneal, 50 mg/kg, 18 h
[10] = Table 2, oral, 50 mg/kg, 16 h immersion
[11] = Table 2, oral, 100 mg/kg, 16 h immersion
[12] = Table 2, oral, 200 mg/kg, 16 h immersion

COc1cc(Nc2ccccc2C(=O)O)c(C(=O)O)cc1OC [Compound 7]
inhibition in vivo at 200 mg/kg [1, 4]: 98.4%
ulcer index (means ± S.E.) [1, 4]: 0.2 ± 0.1 mm

Cc1cc(Nc2cc(Cl)ccc2C(=O)O)c(C(=O)O)cc1C [Compound 15]
inhibition in vivo at 200 mg/kg [1, 4]: 78.8%
ulcer index (means ± S.E.) [1, 4]: 8.2 ± 3.2 mm

Cc1ccc(C(=O)O)c(Nc2ccccc2C(=O)O)c1C [Compound 14]
inhibition [2, 5]: 78.5%
ulcer index (means ± S.E.) [2, 5]: 0.4 ± 0.4 mm
inhibition in vivo at 200 mg/kg [1, 4]: 90.9%
ulcer index (means ± S.E.) [1, 4]: 3.5 ± 1.6 mm

Cc1cc(C)c(C(=O)O)c(Nc2ccccc2C(=O)O)c1 [Compound 11]
inhibition [2, 5]: 60.0%
ulcer index (means ± S.E.) [2, 5]: 1.4 ± 0.6 mm
inhibition in vivo at 200 mg/kg [1, 4]: 96.9%
ulcer index (means ± S.E.) [1, 4]: 1.2 ± 0.9 mm

Cc1ccc(Nc2cc(Cl)ccc2C(=O)O)c(C(=O)O)c1 [Compound 2]
LD50 [3]: > 1500 mg/kg
inhibition [2, 6]: 87.8%
ulcer index (means ± S.E.) [2, 6]: 0.5 ± 0.3 mm
inhibition [2, 7]: 92.7%
ulcer index (means ± S.E.) [2, 7]: 0.3 ± 0.3 mm
inhibition [2, 8]: 100%
ulcer index (means ± S.E.) [2, 8]: 0 mm
inhibition [2, 9]: 80.7%
ulcer index (means ± S.E.) [2, 9]: 0.8 ± 0.4 mm
inhibition in vivo at 50 mg/kg [1, 10]: 22.5%
inhibition in vivo at 100 mg/kg [1, 11]: 89.2%
inhibition in vivo at 200 mg/kg [1, 12]: 100%
ulcer index (means ± S.E.) [1, 10]: 12.0 ± 6.2 mm
ulcer index (means ± S.E.) [1, 11]: 1.7 ± 1.2 mm
ulcer index (means ± S.E.) [1, 12]: 0 mm

COc1ccc(C(=O)O)c(Nc2cc(Cl)ccc2C(=O)O)c1 [Compound 8]
inhibition [2, 5]: 100.0%
ulcer index (means ± S.E.) [2, 5]: 0 ± 0 mm
inhibition in vivo at 200 mg/kg [1, 4]: 96.7%
ulcer index (means ± S.E.) [1, 4]: 1.7 ± 1.3 mm

Cc1c(Cl)ccc(C(=O)O)c1Nc1ccccc1C(=O)O [Compound 5]
LD50 [3]: 1250 mg/kg
inhibition [2, 6]: 67.1%
ulcer index (means ± S.E.) [2, 6]: 1.3 ± 0.6 mm
inhibition [2, 7]: 96.6%
ulcer index (means ± S.E.) [2, 7]: 0.1 ± 0.1 mm
inhibition [2, 8]: 100%
ulcer index (means ± S.E.) [2, 8]: 0 mm
inhibition [2, 9]: 100%
ulcer index (means ± S.E.) [2, 9]: 0 mm
inhibition in vivo at 50 mg/kg [1, 10]: 38.5%
inhibition in vivo at 100 mg/kg [1, 11]: 88.2%
inhibition in vivo at 200 mg/kg [1, 12]: 100%
ulcer index (means ± S.E.) [1, 10]: 9.6 ± 4.4 mm
ulcer index (means ± S.E.) [1, 11]: 1.8 ± 0.9 mm
ulcer index (means ± S.E.) [1, 12]: 0 mm

Cc1ccc(C(=O)O)c(Nc2ccccc2C(=O)O)c1 [Compound 6]
LD50 [3]: > 2000 mg/kg
inhibition [2, 6]: 58.6%
ulcer index (means ± S.E.) [2, 6]: 1.4 ± 0.7 mm
inhibition [2, 7]: 92.5%
ulcer index (means ± S.E.) [2, 7]: 0.3 ± 0.3 mm
inhibition [2, 8]: 100%
ulcer index (means ± S.E.) [2, 8]: 0 mm
inhibition [2, 9]: 48.6%
ulcer index (means ± S.E.) [2, 9]: 2.0 ± 0.7 mm
inhibition in vivo at 50 mg/kg [1, 10]: 34.3%
inhibition in vivo at 100 mg/kg [1, 11]: 92.9%
inhibition in vivo at 200 mg/kg [1, 12]: 100%
ulcer index (means ± S.E.) [1, 10]: 12.1 ± 3.5 mm
ulcer index (means ± S.E.) [1, 11]: 1.5 ± 1.1 mm
ulcer index (means ± S.E.) [1, 12]: 0 mm

Cc1ccc(C(=O)O)c(Nc2cc(Cl)ccc2C(=O)O)c1C [Compound 9]
inhibition [2, 5]: 80.1%
ulcer index (means ± S.E.) [2, 5]: 0.7 ± 0.7 mm
inhibition in vivo at 200 mg/kg [1, 4]: 83.4%
ulcer index (means ± S.E.) [1, 4]: 6.5 ± 3.4 mm

O=C(O)c1ccccc1Nc1cc(Cl)ccc1C(=O)O [Compound 1]
LD50 [3]: 2100 mg/kg

Cc1ccc(C)c(C(=O)O)c1Nc1cc(Cl)ccc1C(=O)O [Compound 4]
LD50 [3]: 3000 mg/kg

Cc1cc(C(=O)O)c(Nc2ccccc2C(=O)O)cc1Cl [Compound 12]
inhibition [2, 5]: 91.8%
ulcer index (means ± S.E.) [2, 5]: 0.3 ± 0.3 mm
inhibition in vivo at 200 mg/kg [1, 4]: 96.7%
ulcer index (means ± S.E.) [1, 4]: 1.3 ± 0.7 mm

Cc1cc(Nc2ccccc2C(=O)O)c(C(=O)O)cc1C [Compound 10]
inhibition [2, 5]: 100.0%
ulcer index (means ± S.E.) [2, 5]: 0 ± 0 mm
inhibition in vivo at 200 mg/kg [1, 4]: 90.1%
ulcer index (means ± S.E.) [1, 4]: 3.8 ± 1.5 mm

Cc1cc(C)c(C(=O)O)c(Nc2cc(Cl)ccc2C(=O)O)c1 [Compound 13]
inhibition [2, 5]: 50.0%
ulcer index (means ± S.E.) [2, 5]: 1.0 ± 0.7 mm
inhibition in vivo at 200 mg/kg [1, 4]: 70%
ulcer index (means ± S.E.) [1, 4]: 11.6 ± 6.2 mm

O=C(O)c1ccc(Cl)cc1Nc1cc(Cl)ccc1C(=O)O [Compound 3]
LD50 [3]: > 2000 mg/kg
inhibition [2, 6]: 33.7%
ulcer index (means ± S.E.) [2, 6]: 2.3 ± 0.7 mm
inhibition [2, 7]: 78.0%
ulcer index (means ± S.E.) [2, 7]: 0.9 ± 0.6 mm
inhibition [2, 8]: 100%
ulcer index (means ± S.E.) [2, 8]: 0 mm
inhibition [2, 9]: 95.7%
ulcer index (means ± S.E.) [2, 9]: 0.3 ± 0.3 mm
inhibition in vivo at 50 mg/kg [1, 10]: 23.3%
inhibition in vivo at 100 mg/kg [1, 11]: 49.5%
inhibition in vivo at 200 mg/kg [1, 12]: 92%
ulcer index (means ± S.E.) [1, 10]: 14.3 ± 3.9 mm
ulcer index (means ± S.E.) [1, 11]: 9.4 ± 4.8 mm
ulcer index (means ± S.E.) [1, 12]: 1.5 ± 0.8 mm
